Here are results for 2 compounds from PMC4022186 (Biochemistry, 2012).

Experiment [1] has as its target T1, E. coli QueD (CPH4 synthase) (Escherichia coli, UniProt P65870). Nature of the experiment: preparative conversion to [7R-D]-CPH4. The format is biochemical. As to conditions: 5 μM QueD, 20 mM PIPES pH 7.4, 10 mM DTT, 18 h, H2O.
Experiment [2] has as its target T1, E. coli QueD (CPH4 synthase). The experiment can be described thus: preparative conversion to [[…]-2H]-CPH4. Conditions: 5 mM sepiapterin, 15 μM QueD, 20 mM PIPES, 99.9% D2O, 20 h. The format is biochemical.

T1 sequence (P65870 whole entry): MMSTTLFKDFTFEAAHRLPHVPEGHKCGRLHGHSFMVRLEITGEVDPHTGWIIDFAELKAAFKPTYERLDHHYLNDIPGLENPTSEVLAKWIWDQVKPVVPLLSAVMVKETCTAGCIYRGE

Regarding `Nc1nc2c(c(=O)[nH]1)N=C([C@H](O)[C@H](O)COP(=O)(O)OP(=O)(O)OP(=O)(O)O)CN2` [H2NTP], in experiment [1], the “preparative conversion to [7R-D]-CPH4; FT-ICR MS of product” value is listed as “The resulting H2NTP was converted to CPH4 in a reaction mixture”.

In the case of `C[C@H](O)C(=O)C1=Nc2c(nc(N)[nH]c2=O)NC1` [sepiapterin], the “preparative conversion to [6-2H]-CPH4; FT-ICR MS of product” value in experiment [2] is “this reaction was used to prepare CPH4 containing deuterium at C-6”.
